Values joined by “and” are separate entries in the source; they are usually repeats but may differ in a detail not shown here. Equal entries are not always repeated.
Assays:
[1] = test system: Lepeophtheirus salmonis copepodids; assay: Infestation test with water dispersible tablets (Example 9); type: in vivo
From the text: The purpose of this example was to assess the efficacy of the sea lice copepodits attachment inhibiting semiochemical (SCAIS), continuously released by water dispersible tablets, on the infestation behaviour of Lepeophtheirus salmonis copepodids in Atlantic salmon smolts (Salmo salar).
72 Atlantic salmon (Salmo salar) in the smolt stage having a weight around 90 g and of the origin SALMAR® (Daugstad 6392 Vikebukt, Norway) were used in this study. 2,400 copepodits used were from the species Lepeophtheirus salmonis origin Ilab® (Bergen, Norway).
Infestation tests were measured at 1 hour, 24 hours, 72 hours and 120 hours after application of the treatment. Blood tests were undertaken at 0 hours, 1 hour, 24 hours, 72 hours and 120 hours after treatment.
[…] were used and the study was conducted in two parallel groups of Atlantic salmon smolts, one group was treated with the sea lice copepodits attachment inhibiting semiochemical tablets of cis-9-hexdecenoic acid, which were placed in a string bag half way down where the water resides in the rearing tank and the other group was the control using only ethyl alcohol.
The infestation test, carried out at 1 hour, 24 hours, 72 hours and 120 hours after application of the treatment was performed in the following manner. […]

copepodits = assay: Infestation test of smolts with copepodits (Examples 4 to 6); type: in vivo, Lepeophtheirus salmonis
Procedure: This test exposed young salmons (smolts weighting almost 70 grams) to a high density group of copepodits during 45 minutes in a testing device, which consisted of four 23 cm diameter tanks, with an outflow. […] Light can modify the behavior of the copepodits which have phototropism. Each tank received a smolt for 45 min (FIG. 6). The copepodits were first fished out of their rearing tank and counted on a stereomicroscope. Four infesting doses of copepodits, containing 60 copepodits each, were prepared for each run of the test. The smolts were placed in a tank containing the treatment solution (or the placebo), which concentration in active substance was 6 ppm. This bath lasted for 10 minutes. Then the smolts were placed in a tank where they were kept in 3 ppm of the same treatment (product or placebo) used in the previous bath to begin the testing. The purpose of this process was to prevent any dramatic decrease in the concentration of the active product on their skin. During the first 10 minutes, the outflow was open and the tent was closed. At that moment each tank was refilled to reach the initial volume of oxygenated liquid (refilled with the same solution, product or placebo). The outflow was then closed for 5 minutes and the infesting dose was introduced in the tank. Then the outflow was opened and stayed opened for 30 minutes with a refill every 10 minutes (without opening the tent). After 45 minutes of exposure to the copepodits, the smolts were euthanized by administration of a toxic dose of anaesthetic agent Benzoake, at a concentration of 10 times the normal dose of 30 to 40 mg/l. The dead fish were placed in a plastic bag in which they were rubbed and rinsed with sea water. The skin of the fish was rubbed with a metallic spoon, to remove all the possible copepodits attached on it, as shown in FIG. 7. Each fish was washed thus detaching all of the copepodits and shells from the fish skin. The collected liquid from the washing was filtered to count the parasites. The copepodits were counted on the filter to obtain the number of copepodites on the outer body of the fish. The gills were then dissected to count the number of copepodits on the gills. The first phase of the test compared the number of copepodits on the body and on the gills, between replicas of the test. The purpose of this phase was to validate the test and measure its standard deviation. The second phase of the test compared the number of copepodits (abbreviated cops in the Tables below) on the body and on the gills, between treated smolts and reference smolts, as a control, which were just bathed in seawater plus ethyl alcohol for the five solutions. The same test as in Example 4 was repeated using palmitoleic acid. […] The same experiment was undertaken as described in Example 4.

[2] = test system: Lepeophtheirus salmonis copepodids; assay: Infestation test with isomer in Atlantic salmon (Example 7); type: in vivo
Procedure: The aim of this example was to test the efficacy of an isomer of Sea Lice Copepodids Attachment Inhibiting Semiochemical (SCAIS) as an inhibitor of the infestation behavior of Lepoephtheirus salmonis copepodids in Atlantic salmon (Salmon salar). The test was realized using 4 rounds of 4 fish, eight of which were treated with trans-9-hexadecenoic acid and the other eight used as a control. For each round 4 fish were tested; i.e., 2 treated fish and 2 controls. To be included in the study the smolts had to have a body weight between 70 g and 150 g and the copepodits had to be able to swim actively. If the smolts had disease, loss of scales, fin damage, cataracts and/or swam abnormally they were not used in the study. If the copepodits were immobile after stimulation, they were rejected from the study. For each round 4 fish are caught and introduced into four 2-liter flat beakers supplied with 1.75 liters of seawater. The treated fish had 6 ppm of trans-9-hexadecenoic acid placed in their seawater, while in the control only seawater was used. 0.52 ml of the treatment or control were directly injected into 1.75 liters of seawater. The 4 fish were bathed in this solution for 10 minutes. The fish were then transferred to another 3.5 liter beaker supplied with 3.5 liters of seawater treated either with 3 ppm of trans-9-hexadecenoic acid or a control of simply seawater. 0.52 ml of the treatment of control were directly injected into 3.5 liters of seawater. The flat beakers were equipped with a valve such that 0.875 liters were emptied from the flat beaker. When the fish were introduced into the beakers, the valves were turned on. Ten minutes after the valves were turned on, the beakers were supplied with either 0.875 liters of the treatment of trans-9-hexadecenoic acid or 0.875 liters of the control of seawater. Ten minutes thereafter (20 minutes after the introduction of the fish into the beakers), the valves were turned off and 60 copepodits per fish were injected into each flat beaker. Five minutes later (25 minutes after introduction of the fish into the beakers), the valves were turned on. Ten minutes later (35 minutes after introduction of the fish into the beakers) each beaker was supplied with either 0.875 liters of trans-9-hexadecenoic acid or 0.875 liters of the control of seawater. Ten minutes later (45 minutes after introduction of the fish into the beakers) each beaker was supplied with either 0.875 liters of trans-9-hexadecenoic acid or 0.875 liters of the control of seawater. […] The content of plastic bag was then emptied above a filter and the number of copepodits was then counted on each filter using a magnifying glass. […] Data was analyzed using 9.4 SAS software (2002-2012 by SAS Institute Inc., Cary, N.C., U.S.A.). […]

[3] = mean of replicas, 6 ppm bath then 3 ppm, 60 copepodits, 45 minutes
[4] = 8 treated fish, 6 ppm then 3 ppm

SMILES	mean number of copepodits attached ([1]; treatment group, water dispersible tablets in rearing tank, 60 copepodits per fish, preliminary analysis)	protection in infestation tests (in words) ([1]; water dispersible tablets, 60 copepodits per fish in closed 3.5 liter tank)	Number of copepodits attached in the gills, Mean (copepodits; Example 6, Treated salmons)	Number of copepodits attached in the gills, Median (copepodits; Example 6, Treated salmons)	Number of copepodits attached to body, Mean (copepodits; Example 6, Treated salmons)	Number of copepodits attached to body, Median (copepodits; Example 6, Treated salmons)	reduction in number of copepodits attached on the body of the salmon (in words) (copepodits; Example 6, vs control salmons and control cods)	effect on attachment of copepodits on smolts (in words) (copepodits; Examples 4 and 5, vs reference smolts in seawater plus ethyl alcohol)	Cop on body, mean (copepodits; [3])	Cop on gills, mean (copepodits; [3])	Cop on body (copepodits; single replica (smolt), 6 ppm bath 10 minutes then 3 ppm, 60 copepodits, 45 minutes)	Nb copepodits, Mean [2, 4]	Nb copepodits, Median [2, 4]	Number of copepodits ([2]; single fish, 6 ppm bath 10 minutes then 3 ppm, 60 copepodits per fish)	effect on number of copepodits attached in Atlantic salmons (in words) ([2]; vs seawater control)
CCCCCC/C=C\CCCCCCCC(=O)O [palmitoleic acid, cis-9-hexadecenoic acid]	10.6	significant protection	2.375	2.5	6.25	6	highly significant reduction	important reduction of the infestation	8.0	2.8	6 and 11 and 7 and 8				
CCCCCC/C=C/CCCCCCCC(=O)O [SCAIS^iso, trans-9-hexadecenoic acid]												10	9	8	significant effect on the number of copepodits attached
